Counter-ions that a name gives are not always drawn.
Assay: Solubility and dissolution of valemetostat tosylate under vigorous or slow agitation
Type: physicochemical
From the text: The object of the present invention is to provide a pharmaceutical composition in which valemetostat or a pharmaceutically acceptable salt thereof, particularly valemetostat tosylate, has excellent dissolution properties. […] Since the effect of vigorous agitation cannot be expected in vivo, a pharmaceutical composition having sufficient dissolution properties in vivo is needed.

solubility (in words): sufficient solubility
SMILES: Cc1cc(C)c(CNC(=O)c2cc(Cl)c3c(c2C)O[C@@](C)([C@H]2CC[C@H](N(C)C)CC2)O3)c(=O)[nH]1 [valemetostat tosylate, (2R)-7-chloro-2-[trans-4-(dimethylamino)cyclohexyl]-N-[(4,6-dimethyl-2-oxo-1,2-dihydropyridin-3-yl)methyl]-2,4-dimethyl-1,3-benzodioxol-5-carboxamide p-toluenesulfonate]
